{
  "source": "patent US20120190707A1",
  "about": "“SELECTIVE INHIBITORS OF AKT AND METHODS OF USING SAME” (priority 2008, published 2012)",
  "key": {"[1]": {"system": "MeWo melanoma cells", "assay": "Cell death by trypan blue staining, MeWo", "type": "cell-based", "procedure": "(A) MeWo melanoma cells growing in 60 mm plates were treated with the indicated concentration of the inhibitor for 4 h before proteins were prepared for western blot analysis using the indicated antibodies. Level of beta.actin was monitored as a control for protein loading. (B) Experiment was performed as indicated in panel A, except that cells were harvested after 24 h for analysis of cell death using trypan blue staining. (C) Melanoma (MeWo), prostate cancer (PC3) and breast cancer (MCF7) cells were treated with BI-69A11 at the indicated concentrations; levels of AKT phosphorylation or expression were assessed 4 h later. The level of beta.actin used as a control for protein loading. (D) Experiment was performed as indicated in panel C, except that cells were harvested after 4 h for analysis of cell death using trypan blue staining.\nTo evaluate the effectiveness of BI-69A11 on melanoma cells we assessed the effect of different concentrations on AKT phosphorylation in MeWO cells.\nFor the proliferation assays, cells were treated as described above. However, instead of scraping cells into the serum-free medium, floating cells were collected in a 15 mL centrifuge tube whereas adherent cells trypsinized gently. The total cell population was pooled and counted on a hemocytometer after staining with Trypan Blue."}, "[2]": {"system": "AKT", "assay": "pAKT473 and total AKT by western analysis in UACC 903 (PTEN-) cells", "type": "cell-based, human", "procedure": "FIG. 6 describes the effect of BI-69A11 on phosphorylation and total levels of AKT in UACC 903 (PTEN−) cells. (A) UACC903 and the modified clone 29-1 (PTEN+) cells were exposed to 10 micro.M BI-69A11 and 50 micro.M LY294002 (a PI3K inhibitor) and the levels of pAKT473 and total AKT determined by western analysis. […] (SF=Serum Free). (B) BI-69A11 inhibits PRAS40 phosphorylation. UACC903 melanoma cells or 29-1 cells (PTEN+) were subjected to treatment with IGF-1 (20 ng/mL) and the level of PRAS40 phosphorylation was assessed. […] The cells were collected, lysed and levels of pPRAS40 and total PRAS40 determined by western analysis. (C) AKT association with HSP90 is inhibited by BI-69A11. Human melanoma cells were treated with BI-69A11 (10.micro.M) or DMSO control for 4 h, followed by protein preparation and immunoprecipitation using antibodies to pan-AKT. MG132 treatment, when used, initiated 1 h prior to treatment and lasted up to the preparation of proteins (total of 5 h). The right panel depicts analysis of total lysates.\nThe term “cell lines”, as used herein, unless otherwise indicated, refer to UACC 903 cells and 29-1 cells. The cells were cultured in DMEM, supplemented with 10% FBS and maintained at 37° C. in 5% CO2. Cells were plated to 75% confluency and grown overnight at 37° C. Plates were rinsed twice with a serum-free DMEM medium and the appropriate concentration of the compound was added to the plates. Cells were harvested at different timepoints by scraping (for western blotting) or trypsinization (for cell proliferation assay) where appropriate.\nThus, we set to test the possibility that BI-69A11's ability to inhibit AKT activity may stem from inhibition of AKT protein expression (see data below). We thus assessed whether inhibition of AKT Ser473 phosphorylation coincides with its activity, namely the phosphorylation of known AKT substrates. […] Of note, AKT3, the primarily active isoform of AKT in melanoma cells, effectively phosphorylates PRAS40 (Madhunapantula et al., 2007). […]"}, "[3]": {"assay": "Initial MTD assays", "conditions": "in vivo, 5 mg/kg; data not shown; read-out: dose at which MTD assays revealed toxicity"}, "[4]": {"system": "NF-kB pathway", "assay": "TNF-α stimulated NF-kB pathway (IKK, IkB) western analysis in UACC903 cells", "type": "cell-based, human", "conditions": "10 μM for 1 h prior to 20 ng/ml TNF-α", "procedure": "UACC903 melanoma cells were exposed to 10 μM BI-69A11 or vehicle control for 1 h prior to treatment with 20 ng/ml TNF-α. Cells were harvested at the indicated time points and whole cell lysates were subjected to western analysis for phosphorylated IKK, total IKK, phosphorylated IkB, total IkB, and PLCγ (as loading control).\nFIG. 11 describes how selected BI-69A11 analogs inhibit the NFkB pathway. UACC903 melanoma cells were exposed to vehicle control, 10 μM BI-69A11, or 10 μM analog for 1 h prior to stimulation with 20 ng/ml TNF-α as indicated. Cells were harvested at 5 min post-stimulation and whole cell lysates were subjected to western analysis for phosphorylated IKK, total IKK, phosphorylated IkB, total IkB, and […] (as loading control).\nWe first tested whether BI-69A11 inhibited the activation of the canonical NF-kB pathway (FIG. 10) in intact cells. […] In contrast, in cells treated with BI-69A11, both IKK and IkB phosphorylation were inhibited in response to TNF-a stimulation. Furthermore, the degradation of IkB protein was inhibited.\nWe next tested the ability of selected BI-69A11 analogs to inhibit the NF-kB pathway (FIG. 11). In this experiment, UACC903 cells were treated with vehicle, BI-69A11 or analog, stimulated with TNF-a, and harvested at 5 minutes post-stimulation. […]"}, "[5]": {"system": "UACC903 melanoma cells", "assay": "CellTiter Blue Cell Viability Assay in UACC903 cells", "type": "cell-based, human", "conditions": "24 h post-treatment", "procedure": "UACC903 melanoma cells were treated with vehicle (0 μM) or the indicated concentrations of BI-69A11, BI-83G10, or BI-98C11. 24 h post-treatment, cell viability was determined using the CellTiter Blue Cell Viability Assay (Promega, Madison Wis.) following the manufacturer's directions."}, "[6]": {"conditions": "mouse, in vivo"}},
  "note": "“Also recorded” adds a separate entry of the source.",
  "data": [
    {"smiles": "O=C(/C=C/c1nc2ccccc2[nH]1)c1c(O)nc2ccc(Cl)cc2c1-c1ccccc1", "note": "[Compound 2, (E)-3-(3-(1H-benzo[d]imidazol-2-yl)acryloyl)-6-chloro-4-phenylquinolin-2(1H)-one]", "values": [
      {"measurement": "cell death", "setting": "[1]; 3 micro.M, within 24 hours", "result": "about 60%"},
      {"measurement": "cell death", "setting": "[1]; 5 micro.M, within 4 hours", "result": "about 25%"},
      {"measurement": "levels of pAKT473", "setting": "[2]; 10 micro.M, UACC903 and 29-1 cells, FIG. 6A", "result": "Reduced levels of pAKT473"},
      {"measurement": "levels of total AKT", "setting": "[2]; 903 cells, 10 micro.M, increasing time after treatment", "result": "reduced levels of total AKT"},
      {"measurement": "levels of pAKT Ser473 / AKT phosphorylation", "setting": "[2]; UACC 903 cells, listed as BI-69A11", "result": "dose-dependent decrease; also recorded: effectively blocked"},
      {"measurement": "MTD", "setting": "[3]", "result": 5, "unit": "mg/kg"},
      {"measurement": "degradation of IkB protein", "setting": "[4]", "result": "inhibited"},
      {"measurement": "IKK and IkB phosphorylation in response to TNF-a stimulation", "setting": "[4]; time course", "result": "inhibited"},
      {"measurement": "viability of UACC903 cells", "setting": "[5]", "result": "decreased the viability"},
      {"measurement": "cytokines in the blood, treated vs. control", "setting": "[6]", "result": "induction of TNFalpha"},
      {"measurement": "toxicity by blood work", "setting": "[6]", "result": "lack of toxicity"}
    ]}
  ]
}
